The text below walks through data of US7208515B2, “Diphenylmethyl compounds useful as muscarinic receptor antagonists” (Theravance, Inc., priority 2004, dated 2007).

By Ki is commonly meant a measure of affinity in units of concentration, obtained from inhibition or displacement.

One assay deals with T1, hM3 receptor (CHO cells) (Homo sapiens, UniProt P20309).
T1 construct: expressed in transfected cells
In words: Blockade of agonist-mediated calcium release via FLIPR assay. The format is cell-based. As to conditions: CHO cells stably expressing the hM3 receptor, oxotremorine. From the text: C. Blockade of Agonist-Mediated Calcium Release via FLIPR Assays
Muscarinic receptor subtypes (M1, M3 and M5 receptors), which couple to Gq proteins, activate the phospholipase C (PLC) pathway upon agonist binding to the receptor. As a result, activated PLC hydrolyzes phosphatyl inositol diphosphate (PIP2) to diacylglycerol (DAG) and phosphatidyl-1,4,5-triphosphate (IP3), which in turn generates calcium release from intracellular stores, i.e., endoplasmic and sarcoplasmic reticulum. […] This fluorescence event was measured in real time by the FLIPR, which detected the change in fluorescence from a monolayer of cells cloned with human M1 and M3, and chimpanzee M5 receptors. Antagonist potency was determined by the ability of antagonists to inhibit agonist-mediated increases in intracellular calcium. […]
To determine antagonist potency, the dose-dependent stimulation of intracellular Ca^2+ release for oxotremorine was first determined so that antagonist potency can later be measured against oxotremorine stimulation at an EC90 concentration. […]
The parameters used for the FLIPR were: exposure length of 0.4 seconds, laser strength of 0.5 watts, excitation wavelength of 488 nm, and emission wavelength of 550 nm. Baseline was determined by measuring the change in fluorescence for 10 seconds prior to addition of agonist. […]

The test system of assay [1] is pilocarpine-evoked salivation. In words: Inhalation guinea pig salivation assay. The format is in vivo. As for the experimental part: Inhalation Guinea Pig Salivation Assay
Guinea pigs (Charles River, Wilmington, Mass.) weighing 200–350 g were acclimated to the in-house guinea pig colony for at least 3 days following arrival. Test compound or vehicle were dosed via inhalation (IH) over a 10 minute time period in a pie shaped dosing chamber (R&S Molds, San Carlos, Calif.). Test solutions were dissolved in sterile water and delivered using a nebulizer filled with 5.0 mL of dosing solution. Guinea pigs were restrained in the inhalation chamber for 30 minutes. During this time, guinea pigs were restricted to an area of approximately 110 sq. cm. […] Upon completion of nebulization, guinea pigs were evaluated at 1.5, 6, 12, 24, 48, or 72 hrs after treatment.
Guinea pigs were anesthetized one hour before testing with an intramuscular (IM) injection of a mixture of ketamine 43.75 mg/kg, xylazine 3.5 mg/kg, and acepromazine 1.05 mg/kg at an 0.88 mL/kg volume. […] Saliva was collected for 10 minutes, at which point the gauze pad was weighed and the difference in weight recorded to determine the amount of accumulated saliva (in mg). The mean amount of saliva collected for animals receiving the vehicle and each dose of test compound was calculated. […] Results were calculated using result means (n=3 or greater). Confidence intervals (95%) were calculated for each dose at each time point using two-way ANOVA. […]

T1 sequence (P20309 whole entry): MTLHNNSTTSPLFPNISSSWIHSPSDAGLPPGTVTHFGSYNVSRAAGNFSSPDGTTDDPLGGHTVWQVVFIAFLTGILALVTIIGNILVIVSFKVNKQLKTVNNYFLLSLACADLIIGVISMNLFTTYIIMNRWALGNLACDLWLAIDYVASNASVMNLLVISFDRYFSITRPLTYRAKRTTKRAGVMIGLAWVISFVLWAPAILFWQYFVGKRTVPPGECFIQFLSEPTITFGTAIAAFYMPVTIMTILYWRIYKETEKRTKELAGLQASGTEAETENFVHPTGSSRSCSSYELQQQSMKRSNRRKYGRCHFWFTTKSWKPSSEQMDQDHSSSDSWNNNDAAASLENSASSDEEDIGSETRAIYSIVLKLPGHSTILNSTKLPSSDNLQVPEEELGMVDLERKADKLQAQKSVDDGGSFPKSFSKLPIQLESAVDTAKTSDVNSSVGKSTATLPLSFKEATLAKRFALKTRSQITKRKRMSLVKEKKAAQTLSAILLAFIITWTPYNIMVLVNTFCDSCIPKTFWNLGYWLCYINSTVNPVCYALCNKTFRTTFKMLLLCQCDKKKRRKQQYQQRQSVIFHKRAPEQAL

Take `CNCC(=O)NCCCCCN1CC[C@@H](C(C(N)=O)(c2ccccc2)c2ccccc2)C1` [Example 1]: the Ki on hM3 receptor (CHO cells) is below 100 nM. In addition, the “apparent lung selectivity index (ratio of anti-sialagogue ID50 to bronchoprotective ID50)” value in assay [1] was “greater than 5”.
